Results on 14 compounds are retold here after patent US12378261B2, “One-step, fast, 18F-19F isotopic exchange radiolabeling of difluoro-dioxaborinins and use of such compounds in treatment” (CORNELL UNIVERSITY, priority 2018, dated 2025).

Data set [1] can be described thus: 19F NMR solvolytic stability of difluoro-dioxaborinins in water/DMSO. The format is physicochemical. To be noted: for Fold increase in stability (90% → 10% H2O): 10% water/DMSO vs 90% water/DMSO; for times more resistant to solvolysis than DK-1: 50 M H2O. On the procedure: Radioactive TLC and […]/^19F NMR studies were used to determine the solvolytic stability of difluoro-dioxaborinins.
(§1) Some difluoro-dioxaborinins are insoluble in water; therefore, solvolytic studies on these compounds were determined in 10% H2O/90% DMSO (5.55 M H2O, deionized). To relate the effect of water concentration to solvolysis, solvolytic studies on all water-soluble difluoro-dioxaborinins (DK-1, DK-2, DK-3, DK-6 and DK-15) were performed twice: once in 10% H2O/90% DMSO (5.55 M H2O) (FIG. 2A), and again in 90% H2O/10% DMSO (50 M H2O) (FIG. 2B). Studies performed in 50 M H2O reflect physiologically appropriate conditions, and allow comparison to literature aryl/alkyl trifluoroborate and dipyrromethene solvolytic stability measurements.^11, 14 Characterization in solutions with reduced water content, 5.55 M H2O, allows comparison of solvolytic rate constants to those of less-soluble difluoro-dioxaborinins. Difluorodioxaborinins solvolysis is not observed in pure (100%) DMSO.
The coefficient of determination (R^2) in all ^19F NMR solvolysis data closely follows single, 2 parameter exponential decay regression (f=a*exp(−k*x), R2 >0.99 in 88% of experiments).

A short description of data set [2]: Optical properties (absorbance, fluorescence emission, quantum yield). The format is physicochemical. The note with it: for Quantum yield: Methanol.
Data set [3] in a line: Solubility in water (50 M H2O). The format is physicochemical. The note with it: 50 M H2O (90% H2O/10% DMSO). On the procedure: as §1
Solvolysis is promoted by extending difluorodioxaborinin π-conjugation using moderately electron poor or electron-neutral substituents (DK-13 and DK-14). To evaluate the effect of extending the difluoro-dioxaborinin 4,5,6 π-system on solvolysis, compounds that bear extended π-conjugation through the difluoro-dioxaborinin moiety (positions 4, 5, and 6) were synthesized. ^19F NMR solvolytic measurements were performed only in 5.55 M H2O, as DK-13 and DK-14 are insoluble in 50 M H2O.

Another data set relates to A549. The data set can be described thus: Inhibition of cell proliferation (IC50, MTS). The format is cell-based. On the procedure:
(§2) As shown in FIGS. 11A-11E, cell viability as a function of Curcumin-BF2 concentration was evaluated for each of the cell lines in Example 5, showing the compounds of the present technology are effective in inhibiting cancer cell proliferation.

Another data set has as its system HCT116. The data set can be described thus: Inhibition of cell proliferation (IC50, MTS). The format is cell-based. On the procedure:
as §2

Another data set relates to HeLa. The data set can be described thus: Inhibition of cell proliferation (IC50, MTS). The format is cell-based. On the procedure: as §2
For another data set, the system named is MCF-7. The data set is described as follows: Inhibition of cell proliferation (IC50, MTS). The format is cell-based. On the procedure:
as §2

The subject of another data set is MDA-MB-231. The data set can be described thus: Inhibition of cell proliferation (IC50, MTS). The format is cell-based. On the procedure: as §2
The subject of the next data set is sentinel nodes. The note with it: non-targeted fluorescent contrasts, literature; cited from earlier work.

Take `COc1cc(/C=C/C2=CC(/C=C/c3ccc(OC(=O)CCN4C(=O)C=CC4=O)c(OC)c3)=[O+][B-](F)(F)O2)ccc1OC(=O)CCN1C(=O)C=CC1=O` [Cur-BF2-2Mal]: in data set [1] (5.55 M H2O), the “fold more rapid solvolysis than Cur-BF2” value came to 24 and the “fold slower solvolysis (more stable) than DK-1” value came to 2.1. Further, in data set [2], the Abs is 434 nm, the Em is recorded as 509 nm, the “Extinction Coefficient” value was 54,000 cm^−1M^−1 and the “Stokes Shift” value turned out to be 75 nm. Also, the Quantum yield in [2] is 3.1%.

For `COc1cc(/C=C/C2=CC(/C=C/c3ccc(O)c(OC)c3)=[O+][B-](F)(F)O2)ccc1O` [Cur-BF2], the Abs in [2] is on record as 500 nm. In addition, the Em in data set [2] stood at 571 nm. Further, the “Extinction Coefficient” value in data set [2] is 73,000 cm^−1M^−1. The solubility in water entry in data set [3] is listed as “insoluble”. The IC50 in the data set on A549 (A549, 24 h) stood at 27 ± 3 µM; with A549 (A549, 48 h), 5.5 ± 0.3 µM; with HCT116 (HCT116, 24 h), 3.31 ± 0.04 µM; in the data set with HCT116 (HCT116, 48 h) it was 4.3 ± 0.2 µM; in the data set on HeLa (24 h) it was 5.4 ± 0.4 µM; in the data set on HeLa (48 h) it was 4.2 ± 0.2 µM. The IC50 worked out at 10 ± 4 µM in the data set with MCF-7 (MCF-7, 24 h); 4.8 ± 0.2 µM with MCF-7 (MCF-7, 48 h); 11 ± 1 µM in the data set with MDA-MB-231 (MDA-MB-231, 24 h); 6 ± 1 µM in the data set on MDA-MB-231 (MDA-MB-231, 48 h).

`COc1cc(/C=C/C(=O)CC(=O)/C=C/c2ccc(O)c(OC)c2)ccc1O` [Curcumin, reference compound]: in data set [2], the Abs stood at 434 nm. For the same compound, the Em in [2] amounted to 535 nm. Moreover, the “Extinction Coefficient” value in data set [2] was 56,500 cm^−1M^−1. In addition, in data set [2], the “Stokes Shift” value was 101 nm. This compound gave a Quantum yield in [2] of 2.4%. The IC50 in the data set on A549 (Homo sapiens, A549, 24 h) stood at 50 ± 4 µM; with A549 (Homo sapiens, A549, 48 h) it was 25 ± 1 µM; in the data set with HCT116 (Homo sapiens, HCT-116, HCT116, 24 h), 27 ± 5 µM; in the data set with HCT116 (Homo sapiens, HCT-116, HCT116, 48 h) it was 16 ± 2 µM; in the data set with HeLa (Homo sapiens, 24 h), 16 ± 3 µM; in the data set with HeLa (Homo sapiens, 48 h), 19 ± 6 µM. The IC50 was 27 ± 8 µM in the data set with MCF-7 (Homo sapiens, MCF7, MCF-7, 24 h); 35 ± 3 µM in the data set with MCF-7 (Homo sapiens, MCF7, MCF-7, 48 h); 32 ± 13 µM with MDA-MB-231 (Homo sapiens, MDA-MB-231, 24 h); 26 ± 6 µM in the data set on MDA-MB-231 (Homo sapiens, MDA-MB-231, 48 h).

On to `CC1=CC(C)=[O+][B-](F)(F)O1` [DK-1], for which, in data set [1], the “Fold increase in stability (90% → 10% H2O)” value is reported as around 2.8. The “solvolysis rate constant, k” value in data set [1] (50 M H2O (90% water, 10% DMSO)) worked out at 0.254 ± 0.002 h⁻¹. Besides, the “solvolysis in absence of water” value in data set [1] (100% DMSO) was “not observed”. Further, the fraction decomposed in [1] ([…] (one fluoride-18 half-life), from rate constant at 50 M H2O) came to 37%. Further, in data set [2], the Abs is reported as 279 nm, the Em came out at 305 nm, the “Extinction Coefficient” value is 9,180 cm^−1M^−1 and the “Stokes Shift” value turned out to be 26 nm. Also, in [3], the solubility in water result was “water-soluble”.

For the compound `CC1=[O+][B-](F)(F)OC(C)=C1C` [DK-2], in data set [1], the “Fold increase in stability (90% → 10% H2O)” value was found to be 3.2 and the “times more resistant to solvolysis than DK-1” value (from here on “times more resistant”) was 6.2. For the same compound, in data set [2], the Abs was 303 nm, the Em was 307 nm, the “Extinction Coefficient” value is given as 12,200 cm^−1M^−1 and the “Stokes Shift” value came out at 4 nm. For the same compound, the solubility in water result in data set [3] is on record as “water-soluble”.

Regarding `CCC1=C(C)O[B-](F)(F)[O+]=C1C` [DK-3], in [1], the “Fold increase in stability (90% → 10% H2O)” value is on record as 3.5 and the “times more resistant” value was 5.6. For the same compound, in data set [2], the Abs came out at 303 nm, the Em was 306 nm, the “Extinction Coefficient” value is 12,000 cm^−1M^−1 and the “Stokes Shift” value worked out at 3 nm. For the same compound, the solubility in water result in data set [3] is recorded as “water-soluble”.

For the compound `CCOC(=O)CCC1=C(C)O[B-](F)(F)[O+]=C1C` [DK-6], in data set [1], the “Fold increase in stability (90% → 10% H2O)” value was 4.7 and the “times more resistant” value was 1.9. In addition, in data set [2], the Abs is reported as 301 nm, the Em was 307 nm, the “Extinction Coefficient” value was 12,600 cm^−1M^−1 and the “Stokes Shift” value amounted to 6 nm. For the same compound, in data set [3], the solubility in water result was “water-soluble”.

On to `F[B-]1(F)OC(c2ccccc2)=CC(c2ccccc2)=[O+]1` [DK-13], for which, in data set [1] (5.55 M H2O), the “fold slower solvolysis (more stable) than DK-1” value is recorded as 1.4 and the “times more rapid solvolysis than DK-2” value was determined as 5.0. For the same compound, in data set [2], the Abs is given as 363 nm, the Em is on record as 413 nm, the “Extinction Coefficient” value was 38,000 cm^−1M^−1 and the “Stokes Shift” value is 50 nm. The Quantum yield in [2] came to 11.2%. For the same compound, the solubility in water entry in [3] is given as “insoluble”.

Regarding `CC1=CC(c2ccccc2)=[O+][B-](F)(F)O1` [DK-14], in data set [1] (5.55 M H2O), the “fold more rapid solvolysis than DK-1” value came to 1.7. Also, in data set [2], the Abs came out at 325 nm, the Em was found to be 328 nm, the “Extinction Coefficient” value is 19,800 cm^−1M^−1 and the “Stokes Shift” value is on record as 3 nm. For the same compound, the solubility in water result in data set [3] is “insoluble”.

On to `CC1=C2CCCCC2=[O+][B-](F)(F)O1` [DK-15], for which, in data set [1], the “Fold increase in stability (90% → 10% H2O)” value was 5.0 and the “times more resistant” value was determined as 2.5. Further, in data set [2], the Abs stood at 303 nm, the Em came to 307 nm, the “Extinction Coefficient” value is 12,000 cm^−1M^−1 and the “Stokes Shift” value stood at 4 nm. Also, in [3], the solubility in water entry is reported as “water-soluble”.

Consider `COc1ccc(C2=CC(c3ccc(C(C)(C)C)cc3)=[O+][B-](F)(F)O2)cc1` [DK-16], for which, in [1] (5.55 M H2O), the “fold slower solvolysis (more stable) than DK-1” value stood at 15 and the “fold slower solvolysis than DK-2” value is given as 2.2. Also, in data set [2], the Abs is on record as 400 nm, the Em is listed as 439 nm, the “Extinction Coefficient” value is 62,000 cm^−1M^−1 and the “Stokes Shift” value was determined as 39 nm. Besides, in data set [2], the Quantum yield is on record as 67.3%. Also, in data set [3], the solubility in water entry is listed as “insoluble”.

`COc1ccc(C2=CC(c3ccc(OC)cc3)=[O+][B-](F)(F)O2)cc1` [DK-17]: in [1] (5.55 M H2O), the “fold slower solvolysis (more stable) than DK-1” value is listed as 16 and the “fold slower solvolysis than DK-2” value was 2.3. Moreover, in [2], the Abs is 408 nm, the Em turned out to be 438 nm, the “Extinction Coefficient” value was 63,600 cm^−1M^−1 and the “Stokes Shift” value is recorded as 30 nm. In [2], this compound registered a Quantum yield of 65.8%. In addition, the solubility in water entry in data set [3] is on record as “insoluble”.

Regarding `CC1(C)C(/C=C/C=C/C=C/C=C2\N(CCCCS(=O)(=O)O)c3ccc4ccccc4c3C2(C)C)=[N+](CCCCS(=O)(=O)[O-])c2ccc3ccccc3c21` [indocyanine green], the “behaviour in sentinel node mapping” value with sentinel nodes was “travel through sentinel nodes to delineate multiple non-sentinel nodes”.

For `CCN(CC)c1ccc(C(=C2C=CC(=[N+](CC)CC)C=C2)c2cc(S(=O)(=O)[O-])ccc2S(=O)(=O)[O-])cc1.[Na+]` [lymphazurin, isosulfan blue], in the data set with sentinel nodes, the “behaviour in sentinel node mapping” value is “travel through sentinel nodes to delineate multiple non-sentinel nodes”.

A word on the IC50: it is the concentration needed to halve the response being measured. A lower IC50 goes with inhibition by little substance.
